Assay results as given in patent US20250129334A1, “LINEAGE SPECIFICATION DURING STEM CELL TRANSITION” (Amniotics AB, priority 2021, published 2025).
Entries after “also recorded” stand apart in the source; their conditions may differ. Where two headings read alike, the source gives them in different places.

Assays:
HE cells = test: HE subculture with metabolic regulators, flow cytometry of hematopoietic output; assay type: cell-based, human
Description: The RB9-CB1 human iPSC line (Woods, N.-B. et al. Brief report: efficient generation of hematopoietic precursors and progenitors from human pluripotent stem cell lines. Stem Cells 29, 1158-1164 (2011)) was co-cultured with mouse embryonic fibroblasts (MEFs, Millipore), passaged every six days and processed to form embryoid bodies (EBs) as described previously (Guibentif, C. et al. Single-Cell Analysis Identifies Distinct Stages of Human Endothelial to-Hematopoietic Transition. Cell Reports 19, 10-19 (2017)). The differentiation protocol used in this study was previously described (Ditadi, A. & Sturgeon, C. M. Directed differentiation of definitive hemogenic endothelium and hematopoietic progenitors from human pluripotent stem cells. Methods 101, 65-72 (2016)), however, small modifications were made to induce both primitive and definitive hematopoiesis, as indicated below and in FIG. 6, a. Newly-formed EBs were first kept in SFD medium supplemented with 1 ng/ml Activin A (on days 0-2) and 3 μM CHIR99021 (on day 2 only). At day 3, media was switched to “Day 3-SP34” medium supplemented with 1 ng/ml Activin A (on day 3 only) and 3 μM CHIR99021 (on day 3 only) until day 6. On day 6, media was replaced by “Day 6-SP34” medium, until day 8. In some experiments where indicated, to obtain a higher yield of HSC-like cells, EBs were kept until day 10: in this case, EBs were plated onto Matrigel (8 μg/cm2, Corning)-coated dishes on day 8 and kept until day 10. Media was changed every day, except on days 5 and 7. On day 8 or 10 (as indicated), EBs were singularized with 5-6 rounds of 5-minute incubations with TryPLE Express (Thermo Fisher Scientific). CD34^+ cells were selected using the human CD34 MicroBead kit (Miltenyi Biotec) and stained with CD34-FITC, CD73-PE, VECad-PerCPCy5.5, CD38-PC7, CD184-APC, CD45-AF700, CD43-APCH7, GPA-eF450, CD90-BV605 and the viability marker 7AAD in order to sort HE (CD34^+CD43^−CXCR4^−CD73^−CD90^+VECad^+), EHT (CD34^+CD43^intCXCR4^−CD73^−CD90^+VECad^+) and HSC-like (CD34^+CD43^+CD90^+CD38^−) cells, according to previously described markers (Guibentif, C. et al. Single-Cell Analysis Identifies Distinct Stages of Human Endothelial to-Hematopoietic Transition. Cell Reports 19, 10-19 (2017); Ditadi, A. et al. Human definitive haemogenic endothelium and arterial vascular endothelium represent distinct lineages. Nat Cell Biol 17, 580-591 (2015); and Choi, K.-D. et al. Identification of the Hemogenic Endothelial Progenitor and Its Direct Precursor in Human Pluripotent Stem Cell Differentiation Cultures. Cell Reports 2, 553-567 (2012)).
Sorted HE (40,000), EHT (30,000) and HSC-like (5-20,000) cells were plated onto Matrigel (16 μg/cm2, Corning)-coated 96-well flat bottom plates in HE medium with 1% penicillin-streptomycin and kept in a humidified incubator at 37° C., 5% C02, 4% 02 overnight. The following day (day 0), wells were washed twice with PBS and fresh HE medium was added, together with 2-DG (1 mM), UK5099 (10 μM), DCA (3 mM or 10 mM), TSA (60 nM), TCP (300 nM), ACSS2i (5 μM), C646 (10 μM), CP-640186 (5 μM) or Atorvastatin (0.5 μM), where indicated. Media was changed and drugs were added every 2 days and cells were kept in a humidified incubator at 37° C., 5% CO2, 20% O2 for 6-7 days. Pictures were taken using an Olympus IX70 microscope equipped with a CellSens DP72 camera and CellSens Standard 1.6 software (Olympus). For single cell subcultures, single HE cells were directly sorted with a BD FACSAriaIII onto OP9-DL1 stroma in flat-bottom 96-well plates with 120 μl OP9 medium (OptiMEM medium with Glutamax (Invitrogen) with 10% FCS, 1% penicillin-streptomycin solution (Thermo Fisher Scientific) and 1% 2-mercaptoethanol (Invitrogen)) with SCF, IL-6, IL-11, IGF1 and EPO, and with or without 10 μM UK, or 3 mM or 10 mM DCA. The cells were kept in a humidified incubator at 37° C., 5% CO2, 4% O2 and media was replaced every 4 days. […]

EHT cells = test: EHT cell subculture with metabolic regulators, flow cytometry; assay type: cell-based, human; conditions: EHT cells; day 3; 2-DG 1 mM
Description: The RB9-CB1 human iPSC line (Woods, N.-B. et al. Brief report: efficient generation of hematopoietic precursors and progenitors from human pluripotent stem cell lines. Stem Cells 29, 1158-1164 (2011)) was co-cultured with mouse embryonic fibroblasts (MEFs, Millipore), passaged every six days and processed to form embryoid bodies (EBs) as described previously (Guibentif, C. et al. Single-Cell Analysis Identifies Distinct Stages of Human Endothelial to-Hematopoietic Transition. Cell Reports 19, 10-19 (2017)). The differentiation protocol used in this study was previously described (Ditadi, A. & Sturgeon, C. M. Directed differentiation of definitive hemogenic endothelium and hematopoietic progenitors from human pluripotent stem cells. Methods 101, 65-72 (2016)), however, small modifications were made to induce both primitive and definitive hematopoiesis, as indicated below and in FIG. 6, a. Newly-formed EBs were first kept in SFD medium supplemented with 1 ng/ml Activin A (on days 0-2) and 3 μM CHIR99021 (on day 2 only). At day 3, media was switched to “Day 3-SP34” medium supplemented with 1 ng/ml Activin A (on day 3 only) and 3 μM CHIR99021 (on day 3 only) until day 6. On day 6, media was replaced by “Day 6-SP34” medium, until day 8. In some experiments where indicated, to obtain a higher yield of HSC-like cells, EBs were kept until day 10: in this case, EBs were plated onto Matrigel (8 μg/cm2, Corning)-coated dishes on day 8 and kept until day 10. Media was changed every day, except on days 5 and 7. On day 8 or 10 (as indicated), EBs were singularized with 5-6 rounds of 5-minute incubations with TryPLE Express (Thermo Fisher Scientific). […]

HSC-like cells = test: HSC-like cell subculture with metabolic regulators, flow cytometry; assay type: cell-based, human; conditions: day 3, 2-DG 1 mM
Description: The RB9-CB1 human iPSC line (Woods, N.-B. et al. Brief report: efficient generation of hematopoietic precursors and progenitors from human pluripotent stem cell lines. Stem Cells 29, 1158-1164 (2011)) was co-cultured with mouse embryonic fibroblasts (MEFs, Millipore), passaged every six days and processed to form embryoid bodies (EBs) as described previously (Guibentif, C. et al. Single-Cell Analysis Identifies Distinct Stages of Human Endothelial to-Hematopoietic Transition. Cell Reports 19, 10-19 (2017)). The differentiation protocol used in this study was previously described (Ditadi, A. & Sturgeon, C. M. Directed differentiation of definitive hemogenic endothelium and hematopoietic progenitors from human pluripotent stem cells. Methods 101, 65-72 (2016)), however, small modifications were made to induce both primitive and definitive hematopoiesis, as indicated below and in FIG. 6, a. Newly-formed EBs were first kept in SFD medium supplemented with 1 ng/ml Activin A (on days 0-2) and 3 μM CHIR99021 (on day 2 only). At day 3, media was switched to “Day 3-SP34” medium supplemented with 1 ng/ml Activin A (on day 3 only) and 3 μM CHIR99021 (on day 3 only) until day 6. On day 6, media was replaced by “Day 6-SP34” medium, until day 8. […]

iPSC-CD34+ = test: NK cell cytotoxic degranulation (CD107) with or without K562 co-culture; assay type: cell-based, human; conditions: for degranulated NK cells (CD3-CD56+CD16+CD107+ cells) / increase in degranulated NK cells vs untreated control / basal degranulation: absence of K562; for degranulated NK cells (CD3-CD56+CD16+CD107+ cells) / increase in degranulated NK cells vs untreated control: DCA 10 mM, CP 2.5 μM, cholesterol 0.5x; for basal degranulation: vs ctrl; for level of degranulated NK cells when exposed to K562 cells: co-culture with K562
Description: NK cell anti-tumour activity can occur via cytotoxic degranulation. CD107 is a marker that is present in the cytotoxic vesicles of NK cells, and so is not expressed on the cell surface of inactivated NK cells. However, upon NK cell activation and degranulation, the CD107 target becomes detectable on the cell surface. Therefore, the level of CD107 detected on NK cells correlates with cytotoxic degranulation. In this assay, several exemplary metabolic regulators were used to assess cytotoxic degranulation in a co-culture assay with K562 cells (an exemplary cancer cell model). As a negative control, iPSC-CD34^+ untreated with a metabolic regulator were used, in which a basal level of 3.27% of degranulated NK cells (CD3^−CD56^+CD16^+CD107^+ cells) were observed (FIG. 16A, top panel).

[1] = tested on: HE, EHT and HSC-like cells; conditions: 100 μM FCCP; all cell types
Protocol: On days 3 and 6 of subculture, cells were collected after a 2-minute incubation at 37° C. with StemPro Accutase Cell Dissociation Reagent and stained with CD34-FITC, CD14-PE, CD33-PC7, CD11b-APC, CD45-AF700, CD43-APCH7, GPA-eF450, CD90-BV605 and the viability marker 7AAD and fluorescence was measured on a BD LSRII. To measure mitochondrial activity, cells were incubated with Tetramethylrhodamine ethyl ester (TMRE, 20 nM) for 30 minutes at 37° C. Negative controls were incubated with 100 μM FCCP for 30 minutes at 37° C., prior to TMRE staining. […] III and MFI levels—MFI FMO were calculated. […] III. To measure proliferation, cells were processed with the CellTrace Violet (CTV) kit according to manufacturer's instructions (10-minute incubation) and fluorescence was measured on a BD LSRFortessa. To measure EdU incorporation, HE cells were assessed on day 1 or 2 of subculture after 24 h EdU pulses, using Click-iT EdU Flow Cytometry Cell Proliferation Assay (Thermo Fisher Scientific, C10424), according to manufacturer's instructions. Flow cytometry outputs were analyzed on FlowJo Software, with initial gatings on SSC-A/FSC-A, FSC-H/FSC-A, SSC-H/SSC-A and 7-AAD to exclude doublets and dead cells in all experiments.

[2] = day 6, single agent vs control (1-AA 4 mM, TCP 300 nM, C646 10 μM, CP 5 μM, shRNAs vs shScr)

## O=CC[C@@H](O)[C@H](O)[C@H](O)CO [2-DG, 2-Deoxy-D-glucose]
HE cells; day 3, 2-DG 1 mM
  CD43+GPA+ cell population: less than 50 % of the control
HE cells; day 3 of subculture, 2-DG 1 mM
  CD43+ cell output from HE cells: significantly reduced
HE cells; day 6, 2-DG 1 mM
  CD43+CD45+ cell population: less than 50 % of the control
EHT cells
  proliferation rate (CellTrace Violet): significantly reduced
HSC-like cells
  proliferation rate (CellTrace Violet): significantly reduced

## O=C(c1c2ccccc2cc2ccccc12)N1CCC(N2CCCC(C(=O)N3CCOCC3)C2)CC1 (stereo not shown) [CP]
HE cells; [2]
  HE-derived CD43+CD45+ (CD45+) cell population: had the same effect as DCA
iPSC-CD34+
  degranulated NK cells (CD3-CD56+CD16+CD107+ cells): 18.3 % of the population
  increase in degranulated NK cells vs untreated control: more than 5 fold
  basal degranulation: higher than ctrl
  level of degranulated NK cells when exposed to K562 cells: further increased; also recorded: increased degranulation

## CC(/C=C/C(=O)NO)=C\[C@@H](C)C(=O)c1ccc(N(C)C)cc1 [TSA, Trichostatin A]
HE cells; day 3, TSA 60 nM
  emergence of CD43+ hematopoietic cells: impaired the emergence

## N#CC(C#N)=NNc1ccc(OC(F)(F)F)cc1 [FCCP, Carbonyl cyanide 4-(trifluoromethoxy)phenylhydrazone]
[1]
  TMRE signal: abrogated the TMRE signal

## CC1=NN(c2ccc(C(=O)O)cc2)C(=O)/C1=C/C1=CC=C(c2cc(C)c(C)cc2[NH+]([O-])O)C1 (stereo not shown) [C646]
HE cells; [2]
  HE-derived CD43+CD45+ (CD45+) cell population: did not have an effect

## CC(C)c1c(C(=O)Nc2ccccc2)c(-c2ccccc2)c(-c2ccc(F)cc2)n1CC[C@@H](O)C[C@@H](O)CC(=O)O [atorvastatin]
HE cells; day 3, Ato 0.5 μM with DCA 3 mM
  DCA effect on CD43+CD45+ cells under co-treatment: abrogated the effect of DCA

## COCCNC(=O)Nc1ccc2nc(-c3cccs3)c(-c3cccs3)nc2c1 [ACSS2i]
HE cells; day 6 of HE subculture, ACSS2i 5 μM with DCA 3 mM
  DCA effect on CD43+CD45+ cells under co-treatment: did not perturb the DCA effect

## N[C@@H]1C[C@H]1c1ccccc1 (racemic) [TCP, Tranylcypromine]
HE cells
  HE-derived CD43+CD45+ (CD45+) cell population: more
  increase in CD43+GPA+ cell frequency following UK5099 treatment when LSD1 is blocked or downregulated: could not detect an increase
  myeloid differentiation (CD43+CD45+CD33+CD11b+): specifically increased myeloid differentiation

## CC(C)CCC[C@@H](C)[C@H]1CC[C@H]2[C@@H]3CC=C4C[C@@H](O)CC[C@]4(C)[C@H]3CC[C@]12C [cholesterol]
iPSC-CD34+
  degranulated NK cells (CD3-CD56+CD16+CD107+ cells): 7.47 % of the population
  increase in degranulated NK cells vs untreated control: more than 2 fold
  basal degranulation: higher than ctrl
  level of degranulated NK cells when exposed to K562 cells: further increased; also recorded: except for Cholesterol treated cells
